Assay results from patent US7932290B2, “Method for the treatment of metabolic disorders” (Wellstat Biologics Corporation, priority 2003, dated 2011).

Tests used:
[1] = system: Human PPARγ LBD fusion protein; experiment: Transcription activation potential, GAL4 luciferase reporter in C3A cells; format: cell-based
Method: (§1) Cells were seeded in 24 well plates the day prior to transfection at 5×10^4−2×10^5 cells/well, depending upon cell type. Cells were transfected using Lipofectamine 2000 reagent from Invitrogen. A total of 0.8 μg DNA/well was added to 50 μL of Optimem Reduced Serum media (serum free; Gibco). Lipofectamine 2000 was added (2.5 μL/well) to another tube containing 50 μL of Optimem media. Plasmid DNA was added at a ratio of 4:3 (reporter:activator); where appropriate, salmon sperm DNA was substituted for activator expressing plasmid. […] DNA constructs containing the mouse PPARα or PPARγ LBD fused to the GAL4 DNA binding domain were also used. The two solutions were incubated at room temperature for 5 min, and then combined. The combined solution was incubated at room temperature for approximately 30 min. Cells were washed once with PBS, and 100 μL of transfection mix added to each well. Plates were incubated at 37° C. in a 5% CO2 incubator for 4.5 hr, followed by aspiration of the transfection mix, with plates refed using EMEM complete media (supplemented with 10% FBS, 1× Glutamine). 24 hr post-transfection, plates were treated with the appropriate compounds in EMEM complete media, followed by washing once with PBS and addition of 100 μL 1× reporter lysis buffer/well (Promega) 24 hr after treatment. Plates went through one freeze/thaw cycle prior to analysis. Approximately 10 μL of lysate was added to 100 μL of firefly luciferase substrate, mixed by pipetting, and analyzed on a luminometer for 10 s using the integration function (relative luciferase units/RLU) or on a Microbeta Trilux (luciferase counts per second/LCPS). Each treatment was performed in triplicate, and in multiple, separate experiments.

[2] = biological target: T1, Human PPARα LBD fusion protein (Homo sapiens, UniProt Q07869); experiment: as above; format: cell-based
T1 construct: a.a; 167-468)
T1 sequence (Q07869 167-468): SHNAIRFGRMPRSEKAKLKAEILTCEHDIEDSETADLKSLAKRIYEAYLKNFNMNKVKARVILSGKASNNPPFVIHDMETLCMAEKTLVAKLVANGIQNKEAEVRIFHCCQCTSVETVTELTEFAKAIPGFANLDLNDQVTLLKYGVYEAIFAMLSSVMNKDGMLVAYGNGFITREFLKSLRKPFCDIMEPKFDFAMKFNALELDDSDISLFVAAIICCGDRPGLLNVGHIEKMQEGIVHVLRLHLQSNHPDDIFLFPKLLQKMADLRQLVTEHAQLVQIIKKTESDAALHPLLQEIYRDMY
Method: (§2) Cells were seeded in 24 well plates the day prior to transfection at 5×10^4−2×10^5 cells/well, depending upon cell type. Cells were transfected using Lipofectamine 2000 reagent from Invitrogen. A total of 0.8 μg DNA/well was added to 50 μL of Optimem Reduced Serum media (serum free; Gibco). Lipofectamine 2000 was added (2.5 μL/well) to another tube containing 50 μL of Optimem media. Plasmid DNA was added at a ratio of 4:3 (reporter:activator); where appropriate, salmon sperm DNA was substituted for activator expressing plasmid. The reporter plasmid used was pFR-Luc, which has the firefly luciferase gene under the control of a GAL4 UAS ([…]) containing promoter. The activator expressing plasmids contain yeast GAL4 DNA binding domain (dbd) fusion of either human PPARα ligand binding domain (LBD; a.a. 167-468) or human PPARγ LBD (a.a. 176-479). DNA constructs containing the mouse PPARα or PPARγ LBD fused to the GAL4 DNA binding domain were also used. The two solutions were incubated at room temperature for 5 min, and then combined. The combined solution was incubated at room temperature for approximately 30 min. Cells were washed once with PBS, and 100 μL of transfection mix added to each well. Plates were incubated at 37° C. in a 5% CO2 incubator for 4.5 hr, followed by aspiration of the transfection mix, with plates refed using EMEM complete media (supplemented with 10% FBS, 1× Glutamine). 24 hr post-transfection, plates were treated with the appropriate compounds in EMEM complete media, followed by washing once with PBS and addition of 100 μL 1× reporter lysis buffer/well (Promega) 24 hr after treatment. Plates went through one freeze/thaw cycle prior to analysis. Approximately 10 μL of lysate was added to 100 μL of firefly luciferase substrate, mixed by pipetting, and analyzed on a luminometer for 10 s using the integration function (relative luciferase units/RLU) or on a Microbeta Trilux (luciferase counts per second/LCPS). Each treatment was performed in triplicate, and in multiple, separate experiments.

[3] = biological target: T2, Mouse PPARα LBD fusion protein (Mus musculus, UniProt P23204); experiment: as above; format: cell-based; conditions: Table 20a
T2 sequence (P23204 239-466): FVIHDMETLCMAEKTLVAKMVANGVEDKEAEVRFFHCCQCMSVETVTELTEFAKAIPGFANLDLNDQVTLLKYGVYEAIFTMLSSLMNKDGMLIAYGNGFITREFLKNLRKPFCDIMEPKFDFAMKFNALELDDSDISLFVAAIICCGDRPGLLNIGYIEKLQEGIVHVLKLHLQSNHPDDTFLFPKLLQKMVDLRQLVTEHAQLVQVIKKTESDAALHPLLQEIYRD
Method: as §2

[4] = biological target: T3, Mouse PPARγ LBD fusion protein (Mus musculus, UniProt P37238); experiment: as above; format: cell-based; conditions: Table 20b
T3 sequence (P37238 238-503): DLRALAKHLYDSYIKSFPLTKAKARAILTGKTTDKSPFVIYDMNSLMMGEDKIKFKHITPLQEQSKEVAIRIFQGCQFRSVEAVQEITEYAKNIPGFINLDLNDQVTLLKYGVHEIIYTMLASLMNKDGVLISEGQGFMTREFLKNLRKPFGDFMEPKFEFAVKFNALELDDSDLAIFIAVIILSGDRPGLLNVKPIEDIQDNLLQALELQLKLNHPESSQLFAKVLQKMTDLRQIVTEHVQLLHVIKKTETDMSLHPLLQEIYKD
Method: as §1

db/db mice [5] = experiment: Antidiabetic effects in db/db mice, Example B (2 weeks daily oral dosing); format: in vivo, mouse; conditions: for Glucose (% of Control) / Glucose: 2 weeks; for Glucose: nonfasting; for Free Fatty Acids ± SEM / Triglycerides ± SEM: serum, 2 weeks daily oral, dose not given in Table 17 (see Table 16)
Excerpt: (§3) db/db mice have a defect in leptin signaling, leading to hyperphagia, obesity and diabetes. Moreover, unlike ob/ob mice on a C57BL/6J background, db/db mice on a C57BL/KS background undergo failure of their insulin-producing pancreatic islet cells, resulting in progression from hyperinsulinemia (associated with peripheral insulin resistance) to hypoinsulinemic diabetes.
(§4) Male obese (db/db homozygote) C57BL/Ksola mice approximately 8 weeks of age, were obtained from Jackson Labs (Bar Harbor, Me.) and randomly assigned into groups of 5-7 animals such that the body weights (50-55 g) and serum glucose levels (≧300 mg/dl in fed state) were similar between groups; male lean (db/+heterozygote) mice served as cohort controls. A minimum of 7 days was allowed for adaptation after arrival. All animals were maintained under controlled temperature (23° C.), relative humidity (50±5%) and light (7:00-19:00), and allowed free access to standard chow (Formulab Diet 5008, Quality Lab Products, Elkridge, Md.) and water.
Treatment cohorts were given daily oral doses of Vehicle (1% hydroxypropylmethylcellulose), Compounds BI, CE, BT, BV, […] or Fenofibrate for 2 weeks. At the end of the treatment period 100 μl of venous blood was withdrawn in a heparinized capillary tube from the retro-orbital sinus of db/db mice for serum chemistry analysis.

db/db mice [6] = experiment: Antidiabetic effects in db/db mice, Example C (17 days daily oral dosing); format: in vivo, mouse; conditions: 300 mg/kg daily oral
Excerpt: as §3, with “C57BL/Ksola (db/db) mice have” for “db/db mice have”, “on a C57BLKS background undergo” for “on a C57BL/KS background undergo”
as §4, with “sorted” for “randomly assigned”, “7 animals each” for “5-7”, “(40-45” for “(50-55”, “groups.” for “groups; male lean (db/+heterozygote) mice served as cohort controls.”
Treatment cohorts were given daily oral doses of vehicle (1% hydroxypropylmethylcellulose), Compounds BI, CF, CG, or phenylacetate for 17 days. At the end of the treatment period, blood samples were collected and serum glucose and triglycerides were measured.

CN(CCOc1ccc(CC2SC(=O)NC2=O)cc1)c1ccccn1 (stereo not shown) [Rosiglitazone, rosiglitazone, reference compound] was tested. Which “transcription activation potential (luciferase) ± standard deviation” value ([1]; Table 22b line 1 μM, rosiglitazone at one-fifth the listed concentration (0.2 μM)) did it give?
Its value is 124 ± 33.8 LCPS.

What about the “transcription activation potential (luciferase) ± standard deviation” value ([1]; Table 22b line 3 μM, rosiglitazone at one-fifth the listed concentration) of the same molecule?
Its value is 134.8 ± 47.8 LCPS.

And the “transcription activation potential (luciferase) ± standard deviation” value ([1]; Table 22b line 10 μM, rosiglitazone at one-fifth the listed concentration)?
Its value is 626.6 ± 227 LCPS.

And the “transcription activation potential (luciferase) ± standard deviation” value ([1]; Table 22b line 30 μM, rosiglitazone at one-fifth the listed concentration)?
The value was 887.2 ± 338.2 LCPS.

What about the “transcription activation potential (luciferase) ± standard deviation” value ([1]; Table 22b line 100 μM, rosiglitazone at one-fifth the listed concentration) of the same molecule?
The value was 1034.1 ± 400.5 LCPS.

Which results are given for Cc1cccc(C)c1COc1cccc(CCCC(=O)O)c1 [CE, 4-(3-(2,6-Dimethylbenzyloxy)phenyl)butyric acid]?
transcription activation potential (luciferase) ± standard deviation ([2]; 1 μM): 14.7 ± 14.6 LCPS; transcription activation potential (luciferase) ± standard deviation ([2]; 3 μM): 13.2 ± 5.8 LCPS; transcription activation potential (luciferase) ± standard deviation ([2]; 10 μM): 26.2 ± 1.4 LCPS; transcription activation potential (luciferase) ± standard deviation ([2]; 30 μM): 10.67 ± 1.2 LCPS; transcription activation potential (luciferase) ± standard deviation ([2]; 100 μM): 6.33 ± 2.6 LCPS; transcription activation potential (luciferase) ± standard deviation ([2]; 200 μM): 12.8 ± 3.7 LCPS; transcription activation potential (luciferase) ± standard deviation ([3]; 1 μM): 9.47 ± 2.14 LCPS; transcription activation potential (luciferase) ± standard deviation ([3]; 3 μM): 9.57 ± 2.61 LCPS; transcription activation potential (luciferase) ± standard deviation ([3]; 10 μM): 1.17 ± 2.49 LCPS; transcription activation potential (luciferase) ± standard deviation ([3]; 30 μM): 7.4 ± 0.23 LCPS; transcription activation potential (luciferase) ± standard deviation ([3]; 100 μM): 6.13 ± 0.17 LCPS; transcription activation potential (luciferase) ± standard deviation ([3]; 200 μM): 8 ± 1.88 LCPS; transcription activation potential (luciferase) ± standard deviation ([4]; 1 μM test compound): 14.3 ± 4.5 LCPS; transcription activation potential (luciferase) ± standard deviation ([4]; 3 μM test compound): 13.43 ± 8.5 LCPS; transcription activation potential (luciferase) ± standard deviation ([4]; 10 μM test compound): 6.03 ± 3.75 LCPS; transcription activation potential (luciferase) ± standard deviation ([4]; 30 μM test compound): 9.6 ± 5.46 LCPS; transcription activation potential (luciferase) ± standard deviation ([4]; 100 μM test compound): 11.7 ± 11.7 LCPS; transcription activation potential (luciferase) ± standard deviation ([4]; 200 μM test compound): 10.5 ± 9.2 LCPS; transcription activation potential (luciferase) ± standard deviation ([1]; 1 μM test compound): 60 ± 11.6 LCPS; transcription activation potential (luciferase) ± standard deviation ([1]; 3 μM test compound): 73.3 ± 30.9 LCPS; transcription activation potential (luciferase) ± standard deviation ([1]; 10 μM test compound): 57.3 ± 22.6 LCPS; transcription activation potential (luciferase) ± standard deviation ([1]; 30 μM test compound): 28.5 ± 16.4 LCPS; transcription activation potential (luciferase) ± standard deviation ([1]; 100 μM test compound): 37.7 ± 23.4 LCPS; transcription activation potential (luciferase) ± standard deviation ([1]; 200 μM test compound): 12.3 ± 4.8 LCPS; Glucose (% of Control) (db/db mice [5]; 93 mg/kg daily oral): 54 ± 8 % of Control; Glucose (db/db mice [5]; 93 mg/kg daily oral): 372.0 ± 53.8 mg/dL; Free Fatty Acids ± SEM (db/db mice [5]): 2867.4 ± 267.7 µM; Triglycerides ± SEM (db/db mice [5]): 132.0 ± 15.2 mg/dL

With COc1cc(C(=O)CCC(=O)O)ccc1OCc1c(C)cccc1C [BT, 4-[[4-(2,6-Dimethylbenzyloxy)-3-methoxy]phenyl]-4-oxobutyric acid] as the molecule, how does the “Glucose (% of Control)” value (db/db mice [5]; 107 mg/kg daily oral) read?
The value was 99 ± 9 % of Control.

What about the “Glucose” value (db/db mice [5]; 107 mg/kg daily oral) of the same molecule?
Its value is 684.3 ± 63.6 mg/dL.

What about the “Free Fatty Acids ± SEM” value (db/db mice [5]) of the same molecule?
The value was 3897.7 ± 291.3 µM.

And the “Triglycerides ± SEM” value (db/db mice [5])?
Its value is 211.5 ± 21.5 mg/dL.

Which results are given for O=C(O)Cc1ccccc1 [Phenylacetate, reference compound]?
Glucose mg/dL (±SEM) (db/db mice [6]): 661 ± 64 mg/dL; Triglycerides (db/db mice [6]): 171 ± 33 mg/dL

How did the “Glucose (% of Control)” value (db/db mice [5]; 113 mg/kg daily oral) turn out when CC(C)OC(=O)C(C)(C)Oc1ccc(C(=O)c2ccc(Cl)cc2)cc1 [Fenofibrate, reference compound] was run?
The value was 81 ± 7 % of Control.

What about the “Glucose” value (db/db mice [5]; 113 mg/kg daily oral) of the same molecule?
Its value is 563.2 ± 49.0 mg/dL.

And the “Free Fatty Acids ± SEM” value (db/db mice [5])?
Its value is 3318.5 ± 208.7 µM.

What about the “Triglycerides ± SEM” value (db/db mice [5]) of the same molecule?
The value was 109.3 ± 9.1 mg/dL.
